# Experimental data reported in ChEMBL document CHEMBL6177994 (J Med Chem, 2025).
# Calls of active or inactive are those of the source. The rule behind the calls is not given here.
# Key:
# [1] = Volume of distribution at steady state in male Sprague-Dawley rat at 1 mg/kg, iv measured up to 24 hrs by LC-MS/MS analysis; assay type: ADME, organism-based; conditions: in vivo, read-out: Vdss
# [2] = Drug concentration in male Balb/c nude mouse plasma xenografted with human PK-59 cells at 10 mg/kg, iv administered as single dose measured after 168 hrs by LC-MS/MS analysis; assay type: ADME, organism-based
# [3] = Plasma protein binding in monkey at 2 uM by LC-MS/MS analysis; assay type: ADME, cell-free, Macaca mulatta; conditions: rhesus monkey, read-out: PPB
# Cytochrome P450 2B6 = Cytochrome P450 2B6 (Homo sapiens, UniProt P20813); assay: Inhibition of CYP2B6 in human liver microsomes using bupropion as substrate at 10 uM incubated for 20 mins in presence of NADPH by LC/MS analysis; assay type: ADME, Microsome
# [4] = Half life in male Beagle dog at 1 mg/kg, iv measured up to 24 hrs by LC-MS/MS analysis; assay type: ADME, organism-based, Canis lupus familiaris; conditions: in vivo
# [5] = Antitumor activity against human Panc 04.03 cells harbouring KRAS G12D mutant xenografted in female Balb/c nude mouse model assessed as tumor regression at 1 to 10 mg/kg, iv QW administered weekly and measured after 28 days relative to control; assay type: functional; conditions: dose 1-10 mg/kg, time 28 day
# [6] = test system: Protein cereblon/GTPase KRas (Homo sapiens), P01116+Q96SW2 [G12D]; assay: In vivo PROTAC activity at CRBN/KRAS G12D mutant in male Balb/c nude mouse xenografted with human GP2d cells assessed as degradation of KRAS G12D mutant at 10 mg/kg, iv measured after 7 days relative to control; assay type: functional, organism-based; conditions: time 7.0 day
# [7] = test system: Protein cereblon/GTPase KRas (Homo sapiens), P01116+Q96SW2 [G12D]; assay: PROTAC activity at CRBN/KRAS G12D mutant in human ASPC1 cells assessed as induction of KRAS G12D mutant degradation at 10 nM measured after 12 hrs by immunoblot analysis relative to control; assay type: cell-based
# [8] = Antitumor activity against human GP2d cells xenografted in female Balb/c nude mouse model assessed as tumor growth inhibition at 10 mg/kg, iv QW administered weekly and measured after 28 days relative to control; assay type: functional; conditions: 672 h, time 28 day, read-out: TGI
# [9] = test system: Protein cereblon/GTPase KRas (Homo sapiens), P01116+Q96SW2 [G12D]; assay: PROTAC activity at CRBN/KRAS G12D mutant in human ASPC1 cells assessed as induction of KRAS G12D mutant degradation at 1 nM measured after 12 hrs by immunoblot analysis relative to control; assay type: cell-based
# [10] = Stability in rat plasma assessed as half life at 1 uM measured up to 120 mins by LC-MS/MS analysis; assay type: ADME, cell-free
# [11] = target: Protein cereblon/GTPase KRas (Homo sapiens, UniProt P01116+Q96SW2, G12D); assay: PROTAC activity at CRBN/KRAS G12D mutant in human ASPC1 cells assessed as induction of KRAS G12D mutant degradation measured after 24 hrs by immunoblot analysis; assay type: cell-based
# [12] = test system: Protein cereblon/GTPase KRas (Homo sapiens), P01116+Q96SW2 [G12D]; assay: In vivo PROTAC activity at CRBN/KRAS G12D mutant in male Balb/c nude mouse xenografted with human PK-59 cells assessed as reduction in ERK phosphorylation level in tumor at 10 mg/kg, iv measured up to 168 hrs; assay type: functional, organism-based
# [13] = Volume of distribution at steady state in male Beagle dog at 1 mg/kg, iv measured up to 24 hrs by LC-MS/MS analysis; assay type: ADME, organism-based, Canis lupus familiaris; conditions: in vivo, read-out: Vdss
# Cytochrome P450 2D6 = Cytochrome P450 2D6 (Homo sapiens, UniProt P10635); assay: Inhibition of CYP2D6 in human liver microsomes using dextromethorphan as substrate at 10 uM incubated for 15 mins in presence of NADPH by LC/MS analysis; assay type: ADME, Microsome; conditions: 0.25 h
# [14] = Inhibition of Raf (unknown origin)/GTP loaded KRas G12D mutant interaction preincubated for 15 mins followed by anti-tag1-eu3 and Tag2-XL665 antibody addition and measured for 120 mins by HTRF method; parameters: species or system Homo sapiens
# [15] = test system: Protein cereblon/GTPase KRas (Homo sapiens), P01116+Q96SW2 [G12D]; assay: In vivo PROTAC activity at CRBN/KRAS G12D mutant in male Balb/c nude mouse xenografted with human GP2d cells assessed as increase in cleaved caspase 7 level at 10 mg/kg, iv measured after 7 days; assay type: functional, organism-based; conditions: time 7.0 day
# Cytochrome P450 2C9 = Cytochrome P450 2C9 (Homo sapiens, UniProt P11712); assay: Inhibition of CYP2C9 in human liver microsomes using diclofenac as substrate at 10 uM incubated for 15 mins in presence of NADPH by LC/MS analysis; assay type: ADME, Microsome; conditions: 0.25 h
# [16] = target: Protein cereblon/GTPase NRas (Homo sapiens) (UniProt P01111+Q96SW2); assay: PROTAC activity at CRBN/NRAS in human MKN-1 cells assessed as induction of […] 0.061 to 1000 nM measured after 24 hrs by immunoblot analysis; assay type: cell-based; conditions: dose 0.061-1000 nM
# [17] = Plasma protein binding in dog at 2 uM by LC-MS/MS analysis; assay type: ADME, cell-free, Canis lupus familiaris; conditions: read-out: PPB
# [18] = Stability in monkey plasma assessed as half life at 1 uM measured up to 120 mins by LC-MS/MS analysis; assay type: ADME, cell-free, Macaca mulatta; conditions: rhesus monkey
# [19] = Half life in male ICR mouse plasma at 10 mg/kg, iv measured after 72 hrs by LC-MS/MS analysis; assay type: ADME, organism-based
# CCRF-CEM = assay: Antiproliferative activity against human CCRF-CEM cells harbouring KRAS G12D mutant assessed as inhibition of cell growth measured after 72 hrs by Cell titer glo method; assay type: functional, cell-based
# [20] = Antiproliferative activity against human GP2d cells harbouring KRAS G12D mutant assessed as inhibition of cell growth measured after 72 hrs by Cell titer glo method; assay type: functional, cell-based
# HCC1588 = assay: Antiproliferative activity against human HCC1588 cells harbouring KRAS G12D mutant assessed as inhibition of cell growth measured after 72 hrs by Cell titer glo method; assay type: functional, cell-based
# AGS = assay: PROTAC activity at CRBN/KRAS G12D mutant in human AGS cells assessed as induction of KRAS G12D mutant degradation 0.01 to 100 nM measured after 24 hrs by immunoblot analysis; assay type: cell-based; conditions: dose 0.01-100 nM
# MKN-1 = assay: Antiproliferative activity against human MKN-1 cells harbouring wild type KRAS assessed as inhibition of cell growth measured after 72 hrs by Cell titer glo method; assay type: functional, cell-based
# [21] = Metabolic stability in human liver microsomes assessed as intrinsic clearance at 1 uM preincubated for 3 mins with NADPH and measured up to 60 mins by LC-MS/MS analysis; assay type: ADME, Microsome; conditions: time < 63 min, read-out: CLH
# [22] = Stability in dog plasma assessed as half life at 1 uM measured up to 120 mins by LC-MS/MS analysis; assay type: ADME, cell-free, Canis lupus familiaris
# Panc 04.03 = assay: Antiproliferative activity against human Panc 04.03 cells harbouring KRAS G12D mutant assessed as inhibition of cell growth measured after 72 hrs by Cell titer glo method; assay type: functional, cell-based
# ASPC1 = assay: Effect on CK1alpha level in human ASPC1 cells at 10 nM measured after 8 hrs by Western blot analysis; assay type: functional, cell-based
# [23] = Antiproliferative activity against human PK-59 cells harbouring KRAS G12D mutant assessed as inhibition of cell growth measured after 72 hrs by Cell titer glo method; assay type: functional, cell-based; conditions: PK-59, 72 h
# [24] = Drug concentration in male ICR mouse plasma at 10 mg/kg, iv measured after 0.25 hrs by LC-MS/MS analysis; assay type: ADME, organism-based
# Protein cereblon/GTPase KRas (Homo sapiens), P01116+Q96SW2 [G12D], sequence (P01116 whole entry G12D): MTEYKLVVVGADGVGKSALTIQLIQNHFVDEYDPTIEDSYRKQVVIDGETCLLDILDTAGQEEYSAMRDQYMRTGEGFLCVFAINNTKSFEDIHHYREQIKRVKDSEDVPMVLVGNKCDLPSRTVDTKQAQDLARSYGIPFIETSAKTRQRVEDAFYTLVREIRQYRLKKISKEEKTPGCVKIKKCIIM
# Protein cereblon/GTPase KRas (Homo sapiens), P01116+Q96SW2 [G12D], sequence (Q96SW2 whole entry partner): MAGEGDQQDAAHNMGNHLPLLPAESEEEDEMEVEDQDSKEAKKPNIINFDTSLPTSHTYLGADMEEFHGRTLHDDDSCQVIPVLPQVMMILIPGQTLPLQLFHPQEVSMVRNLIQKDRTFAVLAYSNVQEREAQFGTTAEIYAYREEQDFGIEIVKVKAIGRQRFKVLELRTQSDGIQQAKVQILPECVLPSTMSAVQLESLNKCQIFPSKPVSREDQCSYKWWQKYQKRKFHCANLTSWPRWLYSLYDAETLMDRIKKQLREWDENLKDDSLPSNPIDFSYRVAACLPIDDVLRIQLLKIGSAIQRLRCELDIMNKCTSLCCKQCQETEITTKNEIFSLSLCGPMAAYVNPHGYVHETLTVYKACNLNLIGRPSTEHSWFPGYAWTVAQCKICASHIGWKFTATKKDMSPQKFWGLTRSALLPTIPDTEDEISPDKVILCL
# Protein cereblon/GTPase KRas, sequence (P01116 whole entry G12D, stated change not applied): as the sequence (P01116 whole entry G12D) above
# Protein cereblon/GTPase KRas, sequence (Q96SW2 whole entry, stated change not applied): as the sequence (Q96SW2 whole entry partner) above
# Cytochrome P450 2D6, sequence (P10635 whole entry): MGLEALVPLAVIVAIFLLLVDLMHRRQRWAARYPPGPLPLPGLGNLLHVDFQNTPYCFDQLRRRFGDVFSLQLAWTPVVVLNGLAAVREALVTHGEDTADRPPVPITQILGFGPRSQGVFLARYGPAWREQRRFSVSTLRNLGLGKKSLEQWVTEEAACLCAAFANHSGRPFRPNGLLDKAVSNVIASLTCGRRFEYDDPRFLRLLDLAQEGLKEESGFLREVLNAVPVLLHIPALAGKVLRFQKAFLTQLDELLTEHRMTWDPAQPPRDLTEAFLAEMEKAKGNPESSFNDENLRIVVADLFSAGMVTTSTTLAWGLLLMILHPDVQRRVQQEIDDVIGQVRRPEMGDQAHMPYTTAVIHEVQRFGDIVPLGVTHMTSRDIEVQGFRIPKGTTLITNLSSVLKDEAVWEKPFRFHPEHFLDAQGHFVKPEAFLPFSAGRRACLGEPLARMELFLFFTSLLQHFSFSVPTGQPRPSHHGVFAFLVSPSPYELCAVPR
# Protein cereblon/GTPase NRas (Homo sapiens), sequence (P01111 whole entry, looked up): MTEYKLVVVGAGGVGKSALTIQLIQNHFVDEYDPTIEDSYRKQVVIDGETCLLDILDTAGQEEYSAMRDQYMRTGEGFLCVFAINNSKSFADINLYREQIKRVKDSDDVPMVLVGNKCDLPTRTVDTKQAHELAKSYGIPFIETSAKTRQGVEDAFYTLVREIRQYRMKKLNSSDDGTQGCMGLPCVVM
# Protein cereblon/GTPase NRas (Homo sapiens), sequence (Q96SW2 whole entry, looked up): as the sequence (Q96SW2 whole entry partner) above
# Cytochrome P450 2C9, sequence (P11712 whole entry): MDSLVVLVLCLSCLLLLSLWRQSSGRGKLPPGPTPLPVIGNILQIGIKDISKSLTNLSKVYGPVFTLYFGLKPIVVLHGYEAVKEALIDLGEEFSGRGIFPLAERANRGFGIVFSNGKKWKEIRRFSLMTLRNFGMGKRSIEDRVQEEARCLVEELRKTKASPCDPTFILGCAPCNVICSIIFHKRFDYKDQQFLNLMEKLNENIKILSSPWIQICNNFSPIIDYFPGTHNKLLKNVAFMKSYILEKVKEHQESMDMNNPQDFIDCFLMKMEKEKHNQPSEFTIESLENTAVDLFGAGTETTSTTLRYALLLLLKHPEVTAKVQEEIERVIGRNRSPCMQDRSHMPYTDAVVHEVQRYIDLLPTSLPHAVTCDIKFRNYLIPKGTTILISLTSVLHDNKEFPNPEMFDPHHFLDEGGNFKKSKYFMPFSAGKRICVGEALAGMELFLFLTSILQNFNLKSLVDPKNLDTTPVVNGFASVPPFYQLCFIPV
# Cytochrome P450 2B6, sequence (P20813 whole entry): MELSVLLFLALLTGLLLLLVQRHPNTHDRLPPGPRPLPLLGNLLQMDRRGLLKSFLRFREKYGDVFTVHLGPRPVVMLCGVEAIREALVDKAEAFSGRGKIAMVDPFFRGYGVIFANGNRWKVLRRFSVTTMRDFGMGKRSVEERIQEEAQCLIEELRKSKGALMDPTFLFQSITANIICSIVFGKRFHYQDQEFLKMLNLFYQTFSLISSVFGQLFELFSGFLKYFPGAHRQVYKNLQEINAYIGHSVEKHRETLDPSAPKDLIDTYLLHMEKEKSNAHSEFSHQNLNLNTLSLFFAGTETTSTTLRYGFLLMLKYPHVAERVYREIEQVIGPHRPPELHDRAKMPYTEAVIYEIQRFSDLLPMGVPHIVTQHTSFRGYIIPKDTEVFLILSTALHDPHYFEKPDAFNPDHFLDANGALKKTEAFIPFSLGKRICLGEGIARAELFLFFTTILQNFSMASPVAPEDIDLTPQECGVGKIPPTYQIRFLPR
compound,measurement,setting,value
C#Cc1c(F)ccc2cc(O)cc(-c3ncc4c(N5CC6CCC(C5)N6)nc(OCC5(CN6CCC7(CC6)CC(N6CCC(c8cc9c(cc8F)c(N8CCC(=O)NC8=O)nn9C)CC6)C7)CC5)nc4c3F)c12,Vd,[1],10.3 L/kg
same,concentration at 168 h,[2],5.3 ng/mL
same,fraction unbound at 2 µM,[3],< 0.05
same,inhibition (INH),Cytochrome P450 2B6,Not_active
same,half-life,[4],15.6 h
same,Activity,[5],>30%
same,Activity,[6],95%
same,Activity,[7],90%
same,inhibition in vivo at 10 mg/kg,[8],30.9%
same,Activity,[9],70%
same,half-life at 1 µM,[10],12.8 h
same,DC50,[11],0.6 nM
same,Activity,[12],Active
same,Vd,[13],16 L/kg
same,inhibition (INH),Cytochrome P450 2D6,Not_active
same,IC50,[14],3.23 nM
same,Activity,[15],Active
same,inhibition (INH),Cytochrome P450 2C9,Not_active
same,Activity,[16],inactive
same,fraction unbound at 2 µM,[17],< 0.05
same,half-life at 1 µM,[18],12.8 h
same,half-life,[19],15.1 h
same,Activity,CCRF-CEM,Active; Compound Showed Stronger Antiproliferative Activity Compared To Mrtx1133
same,IC50,[20],0.19 nM
same,Activity,HCC1588,Active; Compound Showed Stronger Antiproliferative Activity Compared To Mrtx1133
same,Activity,AGS,Active
same,Activity,MKN-1,Weak_effect; Compound Showed Weaker Potency In Antiproliferative Activity Compared To Mrtx1133
same,CLint scaled at 1 µM,[21],8.1 mL/min/kg
same,half-life at 1 µM,[22],7.22 h
same,Activity,Panc 04.03,Active; Compound Showed Stronger Antiproliferative Activity Compared To Mrtx1133
same,Activity,ASPC1,inactive
same,IC50,[23],2.8 nM
same,concentration at 0.25 h,[24],903 ng/mL
